From US20070249537A1, “ABSORPTION ENHANCING AGENTS” (Supernus Pharmaceuticals, Inc., priority 2003, published 2007)
≈ marks a conversion by molar mass, not a printed value. Like-named read-outs stand apart in the source and are kept apart here. Marks after values point to notes of the source that are not given here. Values belong to the compound of their own block, whether it stands above or below them.

Legend:
Caco-2 cell line [1] = assay type: in vitro ADME, human; settings: for Permeability Coefficient, Sampatrilat / Effect on sampatrilat permeation across the Caco-2 cell line: Caco-2
Source text: (§1) The Caco-2 cell line is a well-recognized in vitro screening model, which both structurally and functionally represents the small intestinal epithelium. Caco-2 cells are derived from human colon carcinoma cells and differentiate in culture to form intestinal epithelia similar to that found in the small intestine. More specifically, Caco-2 cells form a brush border with normal enzymes, form tight junctions between cells, and acquire the barrier properties of an enterocyte sheet.
(§2) Permeability coefficients are determined as previously reported by Yazdania et.el (Yazdanian M, Glynn, S I, Wright J L, et al. 1998. Correlating partitioning and Caco-2 permeability of structurally diverse small molecular weight compounds. Pharm Res 15:1490-1494). Briefly, drug solutions were prepared in HBSS at a known final concentration. For AP to BL experiments, the solution was placed on the apical side of the cells and samples were taken from basolateral side. In contrast, for BL to AP experiments, the solution was placed on the basolateral side of the cells and samples were taken from apical side. The samples are analyzed by an HPLC. Transport rates (J) are determined by plotting cumulative amounts of drug permeated as a function of time. Apparent permeability coefficients Pcaco-2, are determined according to the equation Pcaco-2=J/ACi where Ci is the initial concentration of the solution in donor chamber and A is the surface area of the filter.
(§3) The original cell line integrity and the effect of excipients on the integrity of cell line were also tested by measuring the flux of ^14C-mannitol.

Caco-2 cell line [2] = assay type: in vitro ADME, human
Procedure: as §2, §3

Caco-2 cells = assay: Lactate dehydrogenase (LDH) assay after the permeation studies; assay type: cell-based, human
Procedure: In addition, a lactate dehydrogenase (LDH) assay was conducted after the permeation studies to evaluate the cytotoxicity of the absorption enhancers as well as to discover any violation of the integrity of the Caco-2 cells. LDH is a cytosolic enzyme that is not normally secreted outside the cell. However, it leaks into the culture medium upon damage to the cell membranes. In vitro release of LDH from cells provides an accurate measure of cell membrane integrity and cell viability. […] LDH leakage into the apical compartment of the Caco-2 cell system was used to measure the effect, if any, of a given absorption enhancer on the viability of the Caco-2 cells.

Caco-2 cell line [3] = assay type: in vitro ADME, human; remark: listed apart in the source
Source text: as §1, §2

Caco-2 cell line [4] = settings: human
Procedure: (§4) The effectiveness of N-methylated glycines as permeability enhancers was evaluated using mannitol as a control.

in vitro = settings: human, Caco-2
Procedure: as §4

[5] = Aqueous solubility of sampatrilat; assay type: physicochemical
[6] = in vivo; tablet dosage form; earlier studies; cited from earlier work
[7] = sampatrilat study, excipient 1% w/v (none for drug alone)
[8] = hydrochlorothiazide study 1, excipient 1% (none for drug alone)
[9] = hydrochlorothiazide study 5, excipient 5% w/v (none for drug alone)
[10] = mannitol study, first series, enhancer 1% (none for mannitol control)
[11] = hydrochlorothiazide study 2, excipient 1% (none for drug alone)
[12] = mannitol study, first series, enhancer 0.5%
[13] = hydrochlorothiazide study 3, excipient 1% (none for drug alone)

Permeability Coefficient, Sampatrilat (Caco-2 cell line [1]): 0.48 10E−6 cm/s
Permeability coefficient (mannitol) (Caco-2 cell line [2]): 1.07 10E−6 cm/s
Compound: NCCCCCC(=O)O [Amino caproic acid]
Toxicity (Caco-2 cells; [7]): Yes

Permeability Coefficient, Sampatrilat (Caco-2 cell line [1]): 0.34 10E−6 cm/s
Permeability coefficient (mannitol) (Caco-2 cell line [2]): 0.22 10E−6 cm/s
Compound: NC(=O)NCCC[C@H](N)C(=O)O [Citrulline]
Toxicity (Caco-2 cells; [7]): Yes

Permeability enhancement of hydrochlorothiazide (Caco-2 cell line [3]): low or no potency
Compound: O=C1CCCCCCCCCCCCCCO1 [Cyclopentadecanolide, cyclopentadecanolide]
Toxicity (Caco-2 cells; [8]): No
Toxicity (Caco-2 cells; [9]): No

Permeability enhancement of hydrochlorothiazide (Caco-2 cell line [3]): low or no potency
Compound: CC1(C)[C@@H](O)CC[C@]2(C)[C@H]3C(=O)C=C4[C@@H]5C[C@@](C)(C(=O)O)CC[C@]5(C)CC[C@@]4(C)[C@]3(C)CC[C@@H]12 [Glycyrrehetinic acid, 18β-glycyrrhetinic acid, reference compound]
Toxicity (Caco-2 cells; [8]): No

Permeability Coefficient, Sampatrilat (Caco-2 cell line [1]): 0.49 10E−6 cm/s
Permeability coefficient (mannitol) (Caco-2 cell line [2]): 1.63 10E−6 cm/s
Compound: O=c1cc(CO)occ1O [Kojic acid]
Toxicity (Caco-2 cells; [7]): Yes

Enhancement ratio (Caco-2 cell line [4]; Caco-2): 1.0
Enhancement ratio (Caco-2 cell line [4]; Caco-2, 1 %): 1.0
Permeability coefficient (mannitol) (Caco-2 cell line [4]; Caco-2, 1 %): 0.93^a ×10^−6 cm/sec
Papp at 6.8 uM (in vitro): 1.24 ×10⁻⁶ cm/s
Compound: OC[C@@H](O)[C@@H](O)[C@H](O)[C@H](O)CO [Mannitol, reference compound]
Toxicity (Caco-2 cells; [10]): No
Toxicity (Caco-2 cells; mannitol study, second series, 1% enhancer and 1% Tween 80 (none for mannitol control)): No

Effect on sampatrilat permeation across the Caco-2 cell line (Caco-2 cell line [1]): significantly increase
Permeability Coefficient, Sampatrilat (Caco-2 cell line [1]): 19.90 10E−6 cm/s
Increase of sampatrilat permeability over the drug alone (Caco-2 cell line [1]; human, Caco-2, 1 % w/v): 124 fold
Permeability coefficient (mannitol) (Caco-2 cell line [2]): 12.30 10E−6 cm/s
Permeability enhancement of hydrochlorothiazide (Caco-2 cell line [3]): demonstrated as permeability enhancers
Enhancement ratio (Caco-2 cell line [4]; Caco-2, 0.5 %): 9.9
Enhancement ratio (Caco-2 cell line [4]; Caco-2, 1 %): 15.9
Compound: CN(C)CC(=O)O [N,N-dimethylglycine]
Cytotoxicity relative to cells treated with Hank's balanced salt solution alone (Caco-2 cells): not cytotoxic
Toxicity (Caco-2 cells; [8]): No
Toxicity (Caco-2 cells; [11]): No
Toxicity (Caco-2 cells; hydrochlorothiazide study 4, excipient 1% (none for drug alone)): No
Toxicity (Caco-2 cells; [12]): No
Toxicity (Caco-2 cells; [10]): No
Toxicity (Caco-2 cells; [7]): No

Permeability enhancement of hydrochlorothiazide (Caco-2 cell line [3]): low or no potency
Compound: O=C(/C=C/C=C/c1ccc2c(c1)OCO2)N1CCCCC1 [Piperine, piperine]
Toxicity (Caco-2 cells; [11]): No
Toxicity (Caco-2 cells; [9]): Yes

solubility [5]: 1800 µg/mL (≈ 3.08 mM)
Compound: CS(=O)(=O)N[C@@H](CCCCN)C(=O)NC[C@H](CC1(C(=O)N[C@@H](Cc2ccc(O)cc2)C(=O)O)CCCC1)C(=O)O [Sampatrilat]
Oral bioavailability [6]: 2-5%

Effect on sampatrilat permeation across the Caco-2 cell line (Caco-2 cell line [1]): significantly increase
Permeability Coefficient, Sampatrilat (Caco-2 cell line [1]): 2.10 10E−6 cm/s
Permeability coefficient (mannitol) (Caco-2 cell line [2]): 7.50 10E−6 cm/s
Permeability coefficient (hydrochlorothiazide) (Caco-2 cell line [3]): 7.30 ×10^−6, cm/s
Permeability enhancement of hydrochlorothiazide (Caco-2 cell line [3]): demonstrated as permeability enhancers
Compound: O=C(O)CCCCCCCCC(=O)O [Sebacic acid, sebacic acid]
Cytotoxicity relative to cells treated with Hank's balanced salt solution alone (Caco-2 cells): not cytotoxic
Toxicity (Caco-2 cells; [13]): No
Toxicity (Caco-2 cells; [7]): No

Compound: O=C(O)C1=C[C@@H](O)[C@@H](O)[C@H](O)C1 [Shikimic acid, shikimic acid]
Toxicity (Caco-2 cells; [13]): No
Toxicity (Caco-2 cells; hydrochlorothiazide study 5, excipient 3% w/v): No
Toxicity (Caco-2 cells; [7]): No

Compound: C[N+](C)(C)CC(=O)O [betaine, trimethyl glycine]
Toxicity (Caco-2 cells; [10]): No

Enhancement ratio (Caco-2 cell line [4]; Caco-2, 0.5 %): 0.9
Permeability coefficient (mannitol) (Caco-2 cell line [4]; Caco-2, 0.5 %): 8.5e-07 cm/s
Enhancement ratio (Caco-2 cell line [4]; Caco-2, 1 %): 1.0
Permeability coefficient (mannitol) (Caco-2 cell line [4]; Caco-2, 1 %): 9.3e-07 cm/s
Compound: NCC(=O)O [glycine]
Toxicity (Caco-2 cells; [12]): No
Toxicity (Caco-2 cells; [10]): No

Enhancement ratio (Caco-2 cell line [4]; Caco-2, 0.5 %): 1.8
Permeability coefficient (mannitol) (Caco-2 cell line [4]; Caco-2, 0.5 %): 1.71e-06 cm/s
Enhancement ratio (Caco-2 cell line [4]; Caco-2, 1 %): 1.0
Permeability coefficient (mannitol) (Caco-2 cell line [4]; Caco-2, 1 %): 8.9e-07 cm/s
Compound: CNCC(=O)O [sarcosine, methyl glycine]
Toxicity (Caco-2 cells; [12]): No
Toxicity (Caco-2 cells; [10]): No

Permeability coefficient (hydrochlorothiazide) (Caco-2 cell line [3]): 0.58 ×10^−6, cm/s
Permeability enhancement of hydrochlorothiazide (Caco-2 cell line [3]): low or no potency
Compound: Vitamin E TPGS [Vitamin E TGPS]
Toxicity (Caco-2 cells; [13]): No
